The values below come from patent US12673946B2, “Pyrimidin-4(3H)-one derivatives as TRPV4 antagonists” (RaQualia Pharma Inc., priority 2020, dated 2026).

Each structure is given as a SMILES string. Where only a bound is given, the exact number is not on record here.

The experiment has as its target T1, human TRPV4 (Homo sapiens, UniProt Q9HBA0).
T1 construct: host or cells: tetracycline-inducible Flp-In T-REx 293 cells
The experiment is described as follows: Hypotonicity-induced Ca2+ influx (Fluo-4, FDSS). Type of experiment: cell-based. A digest of the protocol:
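Flp-In T-REx 293 cells with tetracycline-induced human TRPV4, loaded with Fluo-4 for 60 min at 25 °C. Compound added 5 min before hypotonic mannitol/CaCl2 solution. Ca2+ signal recorded for 4.5 min on FDSS.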

Where [1] appears, read: Flp-In T-REx 293 cells expressing human TRPV4, examples listed under heading 'Human IC50<50 nM'.
The mark [2] stands for this setting: Flp-In T-REx 293 cells stably expressing human TRPV4, compounds listed by potency bin (<10 nM Tables 96-1/96-2, <3 nM Table 97).

T1 sequence (Q9HBA0 whole entry): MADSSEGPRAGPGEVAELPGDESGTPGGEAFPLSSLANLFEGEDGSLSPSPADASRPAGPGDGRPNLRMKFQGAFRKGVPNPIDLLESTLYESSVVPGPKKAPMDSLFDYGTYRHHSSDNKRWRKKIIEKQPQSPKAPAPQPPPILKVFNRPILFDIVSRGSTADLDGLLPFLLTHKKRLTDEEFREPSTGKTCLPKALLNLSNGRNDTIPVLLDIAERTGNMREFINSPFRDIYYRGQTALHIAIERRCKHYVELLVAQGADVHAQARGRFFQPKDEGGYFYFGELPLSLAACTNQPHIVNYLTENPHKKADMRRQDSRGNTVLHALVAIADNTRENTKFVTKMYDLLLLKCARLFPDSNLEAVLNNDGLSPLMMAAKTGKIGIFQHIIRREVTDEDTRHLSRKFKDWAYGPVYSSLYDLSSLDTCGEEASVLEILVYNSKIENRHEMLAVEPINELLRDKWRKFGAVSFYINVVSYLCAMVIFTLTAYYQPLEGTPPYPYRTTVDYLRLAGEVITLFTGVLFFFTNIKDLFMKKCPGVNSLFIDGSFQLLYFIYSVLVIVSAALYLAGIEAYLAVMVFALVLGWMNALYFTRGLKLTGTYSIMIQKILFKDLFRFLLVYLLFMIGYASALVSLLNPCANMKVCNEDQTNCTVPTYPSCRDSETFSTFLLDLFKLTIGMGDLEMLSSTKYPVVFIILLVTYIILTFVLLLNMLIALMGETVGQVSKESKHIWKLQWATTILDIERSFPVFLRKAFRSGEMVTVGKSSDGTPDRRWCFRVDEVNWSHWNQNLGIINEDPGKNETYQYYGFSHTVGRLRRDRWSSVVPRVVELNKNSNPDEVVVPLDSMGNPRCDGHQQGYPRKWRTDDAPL

The term IC50 denotes the concentration that inhibits the measured activity by half. A high value points to a need for much substance. Regarding `Cn1ncc2c(-c3cccc(C4(c5nc6c(c(=O)[nH]5)CN(C(=O)[C@H](O)c5cccc(Cl)c5)CCC6)CC4)c3)cccc21` [40-10], the IC50 is less than 50 nM under setting [1] and less than 3 nM under setting [2].
As to `O=C([C@H](O)c1cccc(Cl)c1)N1CCCc2nc(C3(c4cccc(-c5csc6ccccc56)c4)CC3)[nH]c(=O)c2C1` [40-11], the IC50 is less than 50 nM under setting [1] and less than 3 nM under setting [2].
Regarding `Cn1ncc2cc(-c3cccc(C4(c5nc6c(c(=O)[nH]5)CN(C(=O)[C@H](O)c5cccc(Cl)c5)CCC6)CC4)c3)ccc21` [40-12], the IC50 by setting is: under setting [1], less than 50 nM; under setting [2], less than 3 nM.
In the case of `O=C([C@H](O)c1cccc(Cl)c1)N1CCCc2nc(C3(c4cccc(-c5cnn(C6CC6)c5)c4)CC3)[nH]c(=O)c2C1` [40-13], the IC50 reads like this: under setting [1], less than 50 nM; under setting [2], less than 10 nM.
On to `COc1cc(-c2cccc(C3(c4nc5c(c(=O)[nH]4)CN(C(=O)[C@H](O)c4cccc(Cl)c4)CCC5)CC3)c2)ccn1` [40-14], for which the IC50 by setting is: under setting [1], less than 50 nM; under setting [2], less than 3 nM.
In the case of `N#CC1(c2ccc(-c3cccc(C4(c5nc6c(c(=O)[nH]5)CN(C(=O)[C@H](O)c5cccc(Cl)c5)CCC6)CC4)c3)cc2)CC1` [40-15], the IC50 runs as follows: under setting [1], less than 50 nM; under setting [2], less than 3 nM.
Turning to `O=C([C@H](O)c1cccc(Cl)c1)N1CCCc2nc(C3(c4cccc(-c5cc6ccccc6o5)c4)CC3)[nH]c(=O)c2C1` [40-17], the IC50 reads like this: under setting [1], less than 50 nM; under setting [2], less than 3 nM.
Consider `O=C([C@H](O)c1cccc(Cl)c1)N1CCCc2nc(C3(c4cccc(-c5cc6ccccc6s5)c4)CC3)[nH]c(=O)c2C1` [40-18], for which the IC50 is less than 50 nM under setting [1] and less than 10 nM under setting [2].
Consider `O=C([C@H](O)c1cccc(Cl)c1)N1CCCc2nc(C3(c4cccc(-c5coc6ccccc56)c4)CC3)[nH]c(=O)c2C1` [40-19], for which the half-maximal inhibitory concentration (IC50) was less than 50 nM under setting [1] and less than 3 nM under setting [2].
For `O=C([C@H](O)c1cccc(Cl)c1)N1CCCc2nc(C3(c4cccc(C5=CCCCC5)c4)CC3)[nH]c(=O)c2C1` [40-20], the half-maximal inhibitory concentration (IC50) by setting is: under setting [1], less than 50 nM; under setting [2], less than 3 nM.
Molecule `N#Cc1cccc(-c2cccc(C3(c4nc5c(c(=O)[nH]4)CN(C(=O)[C@H](O)c4cccc(Cl)c4)CCC5)CC3)c2)c1` [40-21] showed an IC50 under setting [1] of less than 50 nM and a concentration for half-maximal inhibition (IC50) under setting [2] of less than 3 nM.
For `COCCOc1cccc(-c2cccc(C3(c4nc5c(c(=O)[nH]4)CN(C(=O)[C@H](O)c4cccc(Cl)c4)CCC5)CC3)c2)c1` [40-22] the same measures were less than 50 nM and less than 3 nM.
As for `O=C([C@H](O)c1cccc(C(F)(F)F)c1)N1CCCc2nc(C3(c4cc(-c5ccccc5)cs4)CC3)[nH]c(=O)c2C1` [41-1], the IC50 under setting [1] is less than 50 nM and the IC50 under setting [2] was less than 3 nM.
`O=C([C@H](O)c1cccc(C(F)(F)F)c1)N1CCCc2nc(C3(c4cc(-c5cccnc5)cs4)CC3)[nH]c(=O)c2C1` [41-2] gave an IC50 under setting [1] of less than 50 nM.
The molecule `O=C([C@H](O)c1cccc(C(F)(F)F)c1)N1CCCc2nc(C3(c4cc(-c5cnsc5)cs4)CC3)[nH]c(=O)c2C1` [41-3] registered an IC50 under setting [1] of less than 50 nM and an IC50 under setting [2] of less than 10 nM.
Regarding `O=C([C@H](O)c1cccc(C(F)(F)F)c1)N1CCCc2nc(C3(c4cccc(-c5cnsc5)c4)CC3)[nH]c(=O)c2C1` [42-1], the concentration for half-maximal inhibition (IC50) is less than 50 nM under setting [1] and less than 3 nM under setting [2].
For `COc1cc(-c2cccc(C3(c4nc5c(c(=O)[nH]4)CN(C(=O)[C@H](O)c4cccc(C(F)(F)F)c4)CCC5)CC3)c2)ccn1` [42-2] the same measures were less than 50 nM and less than 3 nM.
For `O=C([C@H](O)c1cccc(C(F)(F)F)c1)N1CCCc2nc(C3(c4cccc(-c5cnc(N6CCCC6)nc5)c4)CC3)[nH]c(=O)c2C1` [42-3] the same measures were less than 50 nM and less than 3 nM.
Consider `COCCOc1cccc(-c2cccc(C3(c4nc5c(c(=O)[nH]4)CN(C(=O)[C@H](O)c4cccc(C(F)(F)F)c4)CCC5)CC3)c2)c1` [42-4], for which the IC50 was less than 50 nM under setting [1] and less than 3 nM under setting [2].
With `N#Cc1cccc(-c2cccc(C3(c4nc5c(c(=O)[nH]4)CN(C(=O)[C@H](O)c4cccc(C(F)(F)F)c4)CCC5)CC3)c2)c1` [42-5], the IC50 was less than 50 nM under setting [1] and less than 3 nM under setting [2].
`O=C([C@H](O)c1cccc(C(F)(F)F)c1)N1CCCc2nc(C3(c4cccc(-c5cnn(C6CC6)c5)c4)CC3)[nH]c(=O)c2C1` [42-6] returned an IC50 under setting [1] of less than 50 nM and an IC50 under setting [2] of less than 3 nM.
For `COc1ccc(-c2cccc(C3(c4nc5c(c(=O)[nH]4)CN(C(=O)[C@H](O)c4cccc(C(F)(F)F)c4)CCC5)CC3)c2)cn1` [42-7] the same measures were less than 50 nM and less than 3 nM.
For `O=C([C@H](O)c1cccc(C(F)(F)F)c1)N1CCCc2nc(C3(c4cccc(-c5cccnc5)c4)CC3)[nH]c(=O)c2C1` [42-8] the same measures were less than 50 nM and less than 3 nM.
In the case of `O=C(c1cccc(-c2cccc(C3(c4nc5c(c(=O)[nH]4)CN(C(=O)[C@H](O)c4cccc(C(F)(F)F)c4)CCC5)CC3)c2)c1)N1CCCCC1` [42-9], the 50% inhibitory concentration (IC50) reads like this: under setting [1], less than 50 nM; under setting [2], less than 3 nM.
For `CC1CCN(c2ccc(-c3cccc(C4(c5nc6c(c(=O)[nH]5)CN(C(=O)[C@H](O)c5cccc(C(F)(F)F)c5)CCC6)CC4)c3)cn2)CC1` [42-10] the same measures were less than 50 nM and less than 3 nM.
With `CN(C)c1ccc(-c2cccc(C3(c4nc5c(c(=O)[nH]4)CN(C(=O)[C@H](O)c4cccc(C(F)(F)F)c4)CCC5)CC3)c2)cc1` [42-11], the IC50 is less than 50 nM under setting [1] and less than 3 nM under setting [2].
As for `O=C([C@H](O)c1cccc(C(F)(F)F)c1)N1CCCc2nc(C3(c4cccc(-c5cnn(C6CCC6)c5)c4)CC3)[nH]c(=O)c2C1` [42-12], the IC50 is less than 50 nM under setting [1] and less than 3 nM under setting [2].
For `CN(C)c1ccc(-c2cccc(C3(c4nc5c(c(=O)[nH]4)CN(C(=O)[C@H](O)c4cccc(C(F)(F)F)c4)CCC5)CC3)c2)cn1` [42-13] the same measures were less than 50 nM and less than 3 nM.
Regarding `Cn1c(=O)oc2cc(-c3cccc(C4(c5nc6c(c(=O)[nH]5)CN(C(=O)[C@H](O)c5cccc(C(F)(F)F)c5)CCC6)CC4)c3)ccc21` [42-14], the IC50 under setting [1] was less than 50 nM and the IC50 under setting [2] is less than 3 nM.
For the molecule `CS(=O)(=O)c1cccc(-c2cccc(C3(c4nc5c(c(=O)[nH]4)CN(C(=O)[C@H](O)c4cccc(C(F)(F)F)c4)CCC5)CC3)c2)c1` [42-15], the IC50 runs as follows: under setting [1], less than 50 nM; under setting [2], less than 3 nM.
For `O=C([C@H](O)c1cccc(C(F)(F)F)c1)N1CCCc2nc(C3(c4cccc(-c5ccccc5)c4)CC3)[nH]c(=O)c2C1` [42-16], the IC50 runs as follows: under setting [1], less than 50 nM; under setting [2], less than 10 nM.
On to `O=C([C@H](O)c1cccc(C(F)(F)F)c1)N1CCCc2nc(C3(c4cccc(-c5ccncc5)c4)CC3)[nH]c(=O)c2C1` [42-17], for which the IC50 by setting is: under setting [1], less than 50 nM; under setting [2], less than 10 nM.
`CN(C)S(=O)(=O)c1ccc(-c2cccc(C3(c4nc5c(c(=O)[nH]4)CN(C(=O)[C@H](O)c4cccc(C(F)(F)F)c4)CCC5)CC3)c2)cc1` [42-18]: the IC50 is, setting by setting: under setting [1], less than 50 nM; under setting [2], less than 10 nM.
With `N#Cc1cncc(-c2cccc(C3(c4nc5c(c(=O)[nH]4)CN(C(=O)[C@H](O)c4cccc(C(F)(F)F)c4)CCC5)CC3)c2)c1` [42-19], the IC50 was less than 50 nM under setting [1] and less than 10 nM under setting [2].
With `Cn1ncc2cc(-c3cccc(C4(c5nc6c(c(=O)[nH]5)CN(C(=O)[C@H](O)c5cccc(C(F)(F)F)c5)CCC6)CC4)c3)ccc21` [42-20], the IC50 by setting is: under setting [1], less than 50 nM; under setting [2], less than 10 nM.
In the case of `O=C([C@H](O)c1cccc(C(F)(F)F)c1)N1CCCc2nc(C3(c4cccc(-c5cnn(C(F)F)c5)c4)CC3)[nH]c(=O)c2C1` [42-21], the IC50 reads like this: under setting [1], less than 50 nM; under setting [2], less than 10 nM.
In the case of `O=C([C@H](O)c1cccc(C(F)(F)F)c1)N1CCCc2nc(C3(c4cccc(-c5ccc(C6(O)CCOCC6)cc5)c4)CC3)[nH]c(=O)c2C1` [42-22], the IC50 by setting is: under setting [1], less than 50 nM; under setting [2], less than 10 nM.
For the molecule `COCCn1cc(-c2cccc(C3(c4nc5c(c(=O)[nH]4)CN(C(=O)[C@H](O)c4cccc(C(F)(F)F)c4)CCC5)CC3)c2)cn1` [42-23], the IC50 is less than 50 nM under setting [1] and less than 10 nM under setting [2].
On the same counts, the results for `Cn1ncc2c(-c3cccc(C4(c5nc6c(c(=O)[nH]5)CN(C(=O)[C@H](O)c5cccc(C(F)(F)F)c5)CCC6)CC4)c3)cccc21` [42-24] are less than 50 nM and less than 10 nM.
Consider `O=C([C@H](O)c1cccc(C(F)(F)F)c1)N1CCCc2nc(C3(c4cccc(-c5cncs5)c4)CC3)[nH]c(=O)c2C1` [42-25], for which the IC50 is less than 50 nM under setting [1] and less than 10 nM under setting [2].
For `Cn1nccc1-c1cccc(C2(c3nc4c(c(=O)[nH]3)CN(C(=O)[C@H](O)c3cccc(C(F)(F)F)c3)CCC4)CC2)c1` [42-26], the 50% inhibitory concentration (IC50) by setting is: under setting [1], less than 50 nM; under setting [2], less than 10 nM.
For the molecule `Cn1cc(-c2cccc(C3(c4nc5c(c(=O)[nH]4)CN(C(=O)[C@H](O)c4cccc(C(F)(F)F)c4)CCC5)CC3)c2)cn1` [42-27], the IC50 was less than 50 nM under setting [1] and less than 10 nM under setting [2].
On to `O=C([C@H](O)c1cccc(C(F)(F)F)c1)N1CCCc2nc(C3(c4cccc(-c5csc6ccccc56)c4)CC3)[nH]c(=O)c2C1` [42-28], for which the IC50 under setting [1] is less than 50 nM and the IC50 under setting [2] was less than 10 nM.
In the case of `O=C([C@H](O)c1cccc(C(F)(F)F)c1)N1CCCc2nc(C3(c4cccc(-c5cc6ccccc6s5)c4)CC3)[nH]c(=O)c2C1` [42-29], the IC50 was less than 50 nM under setting [1] and less than 10 nM under setting [2].
On to `O=C([C@H](O)c1cccc(C(F)(F)F)c1)N1CCCc2nc(C3(c4cccc(-c5cnco5)c4)CC3)[nH]c(=O)c2C1` [42-30], for which the IC50 is, setting by setting: under setting [1], less than 50 nM; under setting [2], less than 10 nM.
